Source: PubChem BioAssay (NCI)
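Tested at 5 concentrations; 48 h exposure; 96-well plates; endpoints linearly interpolated, else capped at highest concentration. GI50 is the concentration that inhibits growth by half. Definition used: TGI = concentration required for complete inhibition of growth.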

Legend:
Test in all cases: NCI-60 cell line screen, 48 h
[1] = system: T-47D breast
[2] = system: HCC-2998 colon
[3] = system: SK-MEL-2 melanoma
[4] = system: OVCAR-4 ovarian
[5] = system: A498 renal
[6] = system: SNB-19 CNS
[7] = system: OVCAR-8 ovarian
[8] = system: U251 CNS
[9] = system: UACC-257 melanoma
[10] = system: SR leukemia
[11] = system: MOLT-4 leukemia
[12] = system: HT29 colon
[13] = system: OVCAR-5 ovarian
[14] = system: K-562 leukemia
[15] = system: MDA-MB-435
[16] = system: SK-OV-3 ovarian
[17] = system: MDA-MB-231 breast
[18] = system: COLO 205 colon
[19] = system: UACC-62 melanoma
[20] = system: RXF 393 renal
[21] = system: SF-539 CNS
[22] = system: RPMI-8226 leukemia
[23] = system: UO-31 renal
[24] = system: NCI/ADR-RES ovarian
[25] = system: M14 melanoma
[26] = system: SK-MEL-28 melanoma
[27] = system: KM12 colon
[28] = system: 786-0 renal
[29] = system: OVCAR-3 ovarian
[30] = system: PC-3 prostate
[31] = system: NCI-H522 lung
[32] = system: HOP-92 NSCLC
[33] = system: HS 578T breast
[34] = system: NCI-H23 lung
[35] = system: A549 NSCLC
[36] = system: HCT-15 colon
[37] = system: BT-549 breast
[38] = system: CCRF-CEM leukemia
[39] = system: SF-295 CNS
[40] = system: DU-145 prostate
[41] = system: HOP-62 NSCLC
[42] = system: ACHN renal
[43] = system: SK-MEL-5 melanoma
[44] = system: HL-60(TB) leukemia
[45] = system: SF-268 CNS
[46] = system: IGROV1 ovarian
[47] = system: SW-620 colon
[48] = system: SN12C renal
[49] = system: NCI-H460 lung
[50] = system: SNB-75 CNS
[51] = system: EKVX NSCLC
[52] = system: NCI-H226 lung
[53] = system: MALME-3M melanoma
[54] = system: LOX IMVI melanoma
[55] = system: TK-10 renal

`C=C1C(=O)O[C@H]2[C@H]1CC/C(COC(=O)CCCCCCC(=O)OC/C1=C/CC[C@@]3(C)O[C@H]3[C@H]3OC(=O)C(=C)[C@@H]3CC1)=C\CC[C@@]1(C)O[C@@H]21` showed a GI50 [1] of 3.48 µM, a TGI [1] of 10.8 µM and a GI50 [2] of 3.76 µM. It also gave a TGI [2] of 12.5 µM, a GI50 [3] of 12.6 µM and a TGI [3] of 29.7 µM. The GI50 [4] was 3.23 µM, the TGI [4] was 13.8 µM and the GI50 [5] was 15.3 µM. It also gave a TGI [5] of 30.5 µM, a GI50 [6] of 7.17 µM and a TGI [6] of 24.1 µM. The GI50 [7] was 3 µM, the TGI [7] was 10.3 µM and the GI50 [8] was 2.96 µM. It also gave a TGI [8] of 10.3 µM, a GI50 [9] of 2.1 µM and a TGI [9] of 6.22 µM. The GI50 [10] was 1.51 µM, the TGI [10] was 9.88 µM and the GI50 [11] was 2.4 µM. It also gave a TGI [11] of 9.93 µM, a GI50 [12] of 2.41 µM and a TGI [12] of 4.9 µM. It also gave a GI50 [13] of 2.54 µM, a TGI [13] of 7.5 µM and a GI50 [14] of 2.73 µM. For the same compound, the TGI [14] was 11.1 µM, the GI50 [15] was 3.33 µM and the TGI [15] was 14.2 µM. For the same compound, the GI50 [16] was 35.9 µM, the TGI [16] was over 100 µM and the GI50 [17] was 2.28 µM. It also gave a TGI [17] of 5.94 µM, a GI50 [18] of 2 µM and a TGI [18] of 4.26 µM. It also gave a GI50 [19] of 5.47 µM, a TGI [19] of 20.2 µM and a GI50 [20] of 1.61 µM. It also gave a TGI [20] of 3.33 µM, a GI50 [21] of 2.52 µM and a TGI [21] of 7 µM. For the same compound, the GI50 [22] was 2.27 µM, the TGI [22] was 6.42 µM and the GI50 [23] was 1.58 µM. For the same compound, the TGI [23] was 4.37 µM, the GI50 [24] was 4.26 µM and the TGI [24] was 29.6 µM. It also gave a GI50 [25] of 2.48 µM, a TGI [25] of 8.55 µM and a GI50 [26] of 2.95 µM. It also gave a TGI [26] of 10.2 µM, a GI50 [27] of 3.84 µM and a TGI [27] of 16.9 µM. It also gave a GI50 [28] of 1.84 µM, a TGI [28] of 3.87 µM and a GI50 [29] of 2.55 µM. The TGI [29] was 10 µM, the GI50 [30] was 2.74 µM and the TGI [30] was 7.98 µM. For the same compound, the GI50 [31] was 1.92 µM, the TGI [31] was 3.45 µM and the GI50 [32] was 2.24 µM. For the same compound, the TGI [32] was 8.14 µM, the GI50 [33] was 2.3 µM and the TGI [33] was 8.7 µM. The GI50 [34] was 2.94 µM, the TGI [34] was 12.6 µM and the GI50 [35] was 16.9 µM. It also gave a TGI [35] of 45 µM, a GI50 [36] of 2.63 µM and a TGI [36] of 10.1 µM. For the same compound, the GI50 [37] was 1.81 µM, the TGI [37] was 4.33 µM and the GI50 [38] was 1.11 µM. The TGI [38] was 5.89 µM, the GI50 [39] was 10.8 µM and the TGI [39] was 24.7 µM. It also gave a GI50 [40] of 5.59 µM, a TGI [40] of 17.7 µM and a GI50 [41] of 6.69 µM. It also gave a TGI [41] of 22.9 µM, a GI50 [42] of 2.56 µM and a TGI [42] of 8.98 µM. It also gave a GI50 [43] of 4.83 µM, a TGI [43] of 16.6 µM and a GI50 [44] of 1.5 µM. For the same compound, the TGI [44] was 4.23 µM, the GI50 [45] was 3.51 µM and the TGI [45] was 14.3 µM. It also gave a GI50 [46] of 2.91 µM, a TGI [46] of 10.5 µM and a GI50 [47] of 2.18 µM. It also gave a TGI [47] of 6.24 µM, a GI50 [48] of 2.9 µM and a TGI [48] of 11.2 µM. For the same compound, the GI50 [49] was 5.36 µM, the TGI [49] was 23.9 µM and the GI50 [50] was 12.9 µM. It also gave a TGI [50] of 36.6 µM, a GI50 [51] of 3.66 µM and a TGI [51] of 16.1 µM. For the same compound, the GI50 [52] was 2.39 µM, the TGI [52] was 6.65 µM and the GI50 [53] was 2.55 µM. For the same compound, the TGI [53] was 7.05 µM, the GI50 [54] was 1.58 µM and the TGI [54] was 3.12 µM. It also gave a GI50 [55] of 3.46 µM and a TGI [55] of 9.42 µM.
